Reference: article PMC9953703, “Bacterial Quorum-Sensing Peptides as Immune Modulators Present in Systemic Circulation” (Biomolecules, 2023)
Residues, ends and D or L forms follow the SMILES beside them.

Columns and labels:
in vitro [1] = conditions: human plasma (500 µL) in Krebs-Henseleit buffer pH 7.4, 100 µg peptide, 37 °C shaking, 0, 30 and 120 min, UPLC-PDA, first-order kinetics; for half-life: human, plasma, pH 7.4, Plasma Half-Life
Experimental: In vitro chemical and metabolic stability of Q007, Q010, Q017 and Q212 was determined in cell medium and human plasma, respectively, using previously described procedures. In brief, 100 µg of peptide was incubated in Krebs–Henseleit buffer pH 7.4 with cell medium/plasma (500 µL) at 37 °C while shaking. At predetermined time intervals (i.e., 0, 6 and 24 h for cell medium; 0, 30 and 120 min for plasma), aliquots were immediately transferred into microtubes containing 1:1 volume of 1% (v/v) trifluoroacetic acid solution in water. The enzyme reaction was further stopped by heating the solution at 95 °C for 5 min. Next, the samples were centrifuged to precipitate the denatured proteins and the supernatant analysed using UPLC-PDA (Waters, Milford, MA, USA). Appropriate placebo solutions were similarly prepared. Assuming first-order kinetics, the rate constant k was obtained from ln(Pt/Pt0) = −kt, from which the half-life was determined as T1/2 = ln(2)/k.

human red blood cells = conditions: human RBC, 1 μM QSP, 1 h, 37 °C
Experimental: In vitro haemolysis of Q007, Q010, Q017 and Q212 was determined using previously described procedures. Briefly, freshly obtained human blood was centrifuged and the precipitate washed using freshly prepared 150 mM NaCl solution. After the final centrifugation step, the precipitate was resuspended into 100 mM sodium phosphate buffer pH 7.4. A 1 to 10 RBC solution was incubated for 1 h at 37 °C with QSP at a concentration of 1 μM. The absorbance of the supernatant was measured at 405 nm and corrected for the blank absorbance. The percent haemolysis was then calculated using the following equation: [(Asample − Ablank)/(Apositive control − Ablank)] × 100, with 1% (v/v) Triton X-100 being the positive control.

in vitro [2] = conditions: human, Caco-2
Experimental: Caco-2 permeability tests were performed as described by Wynendaele et al. [7], based on the protocol of Hubatsch et al. [14]. Briefly, Caco-2 cells were seeded on 12-well polycarbonate membrane filters (0.4 μm pore size, Corning, Teltow, Germany) and left for differentiation during 21–29 days. […] Samples were quantitatively analysed using UPLC-MS/MS. Four independent biological replicates were used (different days and well-plates), with each between 3 and 6 technical replicates (i.e., different wells on one plate/in one day).

SMILES | half-life (in vitro [1]) | Plasma Half-Life (in vitro [1]) | haemolysis-inducing effect (human red blood cells) | Papp A→B at 30 min (in vitro [2])
CC(C)[C@H](N)C(=O)N1CCC[C@H]1C(=O)N[C@@H](Cc1ccccc1)C(=O)N[C@@H](CCC(=O)O)C(=O)N[C@@H](Cc1ccccc1)C(=O)O [Q212, PapR5III] (H-VPFEF-OH) | 0.2 h | – | – | –
CC(C)C[C@H](NC(=O)[C@H](CC(=O)O)NC(=O)[C@H](C)N)C(=O)N1CCC[C@H]1C(=O)N[C@@H](Cc1ccccc1)C(=O)N[C@@H](CCC(=O)O)C(=O)N[C@@H](Cc1ccccc1)C(=O)O [Q010, PapR7I] (H-ADLPFEF-OH) | 9 h | 9.2 h | lack of haemolysis-inducing effects | 0.0129 ×10⁻⁶ cm/s
C[C@@H](O)[C@H](NC(=O)[C@H](Cc1c[nH]c2ccccc12)NC(=O)[C@@H]1CCCN1C(=O)[C@H](CO)NC(=O)[C@@H](N)Cc1ccc(O)cc1)C(=O)N[C@@H](CC(N)=O)C(=O)N[C@@H](Cc1ccccc1)C(N)=O [Q007, RNAIII Inhibiting Peptide (RIP)] (H-YSPWTNF-NH2) | 2 h | 2.2 h | did not induce haemolysis | –
CC[C@H](C)[C@H](NC(=O)[C@H](CC(C)C)NC(=O)[C@H](C)N)C(=O)N[C@@H](CC(C)C)C(=O)N[C@H](C(=O)N[C@@H](CC(C)C)C(=O)N[C@H](C(=O)N[C@@H](CO)C(=O)O)C(C)C)[C@@H](C)O [Q017, iPD1] (H-ALILTLVS-OH) | 2.5 h | – | – | –
